Reference: patent publication US20240122180A1, “FUNGICIDAL HALOMETHYL KETONES AND HYDRATES AND THEIR MIXTURES” (FMC Corporation, priority 2020, published 2024)
Marks after values point to notes of the source that are not given here.

What was measured:
Assay type in all cases: in vivo
Details in all cases: 100 = 100% disease control
[1] = test system: Phakopsora pachyrhizi (the causal agent of Asian soybean rust); test: Test A: preventive spray on soybean seedlings, visual disease rating (100 = 100% control; * 50 ppm, ** 10 ppm, *** 250 ppm)
Summary of the method: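 Soybean seedlings sprayed to run-off with compound suspended in acetone/water with 250 ppm PEG400 surfactant, inoculated next day with P. pachyrhizi spores. Kept 24 h saturated at 22 °C, then 8 days at 22 °C before visual rating of disease control (0-100) relative to controls.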

[2] = test system: Puccinia recondita f. sp. tritici (the causal agent of wheat leaf rust); test: Test B: preventive spray on wheat seedlings, disease rating (100 = 100% control; * 50 ppm, ** 10 ppm, *** 250 ppm)
Summary of the method: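 Wheat seedlings sprayed to run-off with compound in acetone/water (50/50) containing 250 ppm PEG400, inoculated next day with Puccinia recondita f. sp. tritici spores. Held 24 h saturated at 20° C, then 6 days at 20° C; disease control rated 0–100 relative to controls.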

[3] = test system: Uncinula necator (the causal agent of grape powdery mildew); test: Test C: preventive spray on grape seedlings, disease rating (100 = 100% control; * 50 ppm, ** 10 ppm, *** 250 ppm)
Excerpt: (§1) General protocol for preparing test suspensions for Tests A-E: the test compounds were first dissolved in acetone in an amount equal to 3% of the final volume and then suspended at the desired concentration (in ppm) in acetone and purified water (50/50 mix by volume) containing 250 ppm of the surfactant […] (polyhydric alcohol esters). The resulting test suspensions were then used in Tests A-E.
The test solution was sprayed to the point of run-off on grape seedlings. The following day the seedlings were inoculated with a spore suspension of Uncinula necator (the causal agent of grape powdery mildew) and incubated in a growth chamber at 20° C. for 12 days, after which time disease ratings were made.
(§2) Results for Tests A-E are given in Table A. In the Table, a rating of 100 indicates 100% disease control and a rating of 0 indicates no disease control (relative to the controls). An asterisk “*” or a double asterisk “**” or a triple asterisk “***” next to the rating value indicates a 50 ppm, 10 ppm and 250 ppm test suspension was used, respectively. A dash (-) indicates the compound was not tested.

[4] = test system: Zymoseptoria tritici (the causal agent of wheat leaf blotch); test: Test D: preventive spray on wheat seedlings, disease rating (100 = 100% control; * 50 ppm, ** 10 ppm, *** 250 ppm)
Excerpt: as §1
The test solution was sprayed to the point of run-off on wheat seedlings. The following day the seedlings were inoculated with a spore suspension of Zymoseptoria tritici (the causal agent of wheat leaf blotch) and incubated in a saturated atmosphere at 24° C. for 48 h, and then moved to a growth chamber at 20° C. for 17 days, after which time disease ratings were made.
as §2

[5] = test system: Blumeria graminis f. sp. tritici (the causal agent of wheat powdery mildew); test: Test E: preventive spray on wheat seedlings, visual disease rating (100 = 100% control; * 50 ppm, ** 10 ppm, *** 250 ppm)
Excerpt: as §1
The test suspension was sprayed to the point of run-off on wheat seedlings. The following day the seedlings were inoculated with a spore dust of Blumeria graminis f. sp. tritici, (also known as Erysiphe graminis f. sp. tritici, the causal agent of wheat powdery mildew) and incubated in a growth chamber at 20° C. for 8 days, after which time visual disease ratings were made.
as §2

[6] = 50 ppm test suspension, 0 = no control
[7] = 250 ppm test suspension, 0 = no control
[8] = 10 ppm test suspension, soybean seedlings
[9] = 10 ppm test suspension, wheat seedlings
[10] = 50 ppm test suspension, grape seedlings
[11] = 250 ppm test suspension, wheat seedlings
[12] = 250 ppm test suspension, soybean seedlings
[13] = 250 ppm test suspension, grape seedlings
[14] = 10 ppm test suspension, 0 = no control
[15] = 50 ppm test suspension, soybean seedlings
[16] = 50 ppm test suspension, wheat seedlings

Row | SMILES | Test A disease control rating [1, 6] | Test B disease control rating [2, 6] | Test C disease control rating [3, 7] | Test D disease control rating [4, 7] | Test E disease control rating [5, 7] | Test D disease control rating [4, 11] | Test E disease control rating [5, 11] | Test C disease control rating [3, 13] | further results
1 | CCO/C(=C\Oc1cccc(Cn2cc(C(=O)NCC(F)F)cn2)c1)C(F)(F)F [compound 394] | 0% | 0% | 75*** % | 24*** % | 0*** % | – | – | – | –
2 | C#CCOC(=O)c1cnn(Cc2ccc(O/C=C(\OCC)C(F)(F)F)cc2)c1 [compound 185] | – | – | – | – | – | 0*** % | 95*** % | – | Test A disease control rating [1, 8]: 100%; Test B disease control rating [2, 9]: 0%; Test C disease control rating [3, 10]: 100* %
3 | CCOC(=COc1ccc(C2CN(S(=O)(=O)CC)C2)cc1)C(F)(F)F [compound 383] | 0% | 0% | 74*** % | 0*** % | 0*** % | – | – | – | –
4 | O=C(NCC(F)(F)F)c1csc(Cc2ccc(OCC3(C(F)(F)F)OCCO3)cc2)n1 [compound 70] | – | – | – | – | – | 91% | 83% | 86% | Test A disease control rating [1, 12]: 100%; Test B disease control rating [2, 11]: 100%
5 | CCOC(=O)c1cnn(Cc2ccc(OCC(O)(O)C(F)(F)F)cc2F)c1 [Compound 376] | 100% | 92% | – | 98*** % | 99*** % | – | – | – | Test C disease control rating [3, 6]: 36%
6 | CCOC(=O)c1cnn(-c2ccc(O/C=C(\OCC)C(F)(F)F)cc2)c1 [compound 316] | 100% | 9% | – | – | – | – | – | – | Test C disease control rating [3, 6]: 100%; Test D disease control rating [4, 6]: 2%; Test E disease control rating [5, 6]: 73%
7 | CCNC(=O)c1cnn(Cc2ccc(O/C=C(\OCC)C(F)(F)F)cc2)c1 [compound 437] | 77% | 0% | 77*** % | 78*** % | 69*** % | – | – | – | –
8 | CCOC(=O)c1cnn(Cc2ccc(O/C=C(\OC(C)C)C(F)(F)F)cc2)c1 [compound 57] | – | – | – | – | – | 28% | 95*** % | 64*** % | Test A disease control rating [1, 12]: 100%; Test B disease control rating [2, 11]: 0%
9 | CC#CCOC(=O)c1cnn(Cc2ccc(O/C=C(\OCC)C(F)(F)F)cc2)c1 [compound 243] | – | – | – | – | – | 0*** % | 56*** % | 29*** % | Test A disease control rating [1, 8]: 100%; Test B disease control rating [2, 9]: 0%
10 | CCO/C(=C\Oc1ccc(Cc2ncc(C(=O)NCC3CC3)s2)cc1)C(F)(F)F [compound 254] | – | – | – | – | – | 67*** % | 56*** % | 10*** % | Test A disease control rating [1, 8]: 73%; Test B disease control rating [2, 9]: 0%
11 | C=C(C)COC(=O)c1cnn(Cc2ccc(O/C=C(\OCC)C(F)(F)F)cc2)c1 [compound 242] | – | – | – | – | – | 27*** % | 69*** % | 87*** % | Test A disease control rating [1, 8]: 100%; Test B disease control rating [2, 9]: 0%
12 | CCO/C(=C\Oc1cccc(Cn2cc(C(=O)NC(C)C)cn2)c1)C(F)(F)F [compound 415] | – | – | 9*** % | 0*** % | 0*** % | – | – | – | Test A disease control rating [1, 14]: 0%; Test B disease control rating [2, 14]: 0%
13 | CCOC(=O)c1cnn(Cc2ccc(O/C=C(\OCC)C(F)(F)F)c(F)c2F)c1 [compound 430] | 100% | 0% | 82*** % | 3*** % | 99*** % | – | – | – | –
14 | OC(O)(COc1ccc(Cn2cc(Br)cn2)cc1)C(F)(F)F [compound 322] | – | – | 48*** % | 100*** % | 97*** % | – | – | – | Test A disease control rating [1, 14]: 99%; Test B disease control rating [2, 14]: 86%
15 | CCO/C(=C\Oc1ccc(Cn2cc(C(=O)NC(C)C)cn2)cc1)C(F)(F)F [compound 118] | – | – | – | – | – | 13*** % | 76*** % | 77*** % | Test A disease control rating [1, 15]: 100%; Test B disease control rating [2, 16]: 0%
16 | CCOC(=O)c1cnnn1Cc1ccc(O/C=C(\OCC)C(F)(F)F)cc1 [compound 120] | – | – | – | – | – | – | – | – | Test A disease control rating [1, 15]: 100%; Test B disease control rating [2, 16]: 0%; Test C disease control rating [3, 10]: 23%; Test D disease control rating [4, 16]: 17%; Test E disease control rating [5, 16]: 98%
17 | CCO/C(=C\Oc1ccc(Cn2cc(C(=O)NCc3ncccn3)cn2)cc1)C(F)(F)F [compound 435] | 96% | 0% | 45*** % | 5*** % | 81*** % | – | – | – | –
18 | CCO/C(=C\Oc1cccc(Cn2cc(C(=O)NC)cn2)c1)C(F)(F)F [compound 403] | 54% | – | 74*** % | 17*** % | 0*** % | – | – | – | –
19 | CCO/C(=C\Oc1cccc(Cn2cc(C(=O)NCc3ncccn3)cn2)c1)C(F)(F)F [compound 402] | 97% | – | 48*** % | 5*** % | 0*** % | – | – | – | –
20 | CCCCOC(=O)c1cnn(Cc2ccc(O/C=C(\OCC)C(F)(F)F)cc2)c1 [Compound 218, butyl 1-[[4-[[(1Z)-2-ethoxy-3,3,3-trifluoro-1-propen-1-yl]oxy]phenyl]methyl]-1H-pyrazole-4-carboxylate] | – | – | – | – | – | – | – | – | pest or weed control at 10 ppm ([2]; Puccinia recondita, 10 ppm test suspension, wheat seedlings): 0%; pest or weed control at 250 ppm ([3]; Erysiphe necator, 250 ppm test suspension, grape seedlings): 75%; pest or weed control at 250 ppm ([4]; Zymoseptoria tritici, 250 ppm test suspension, wheat seedlings): 53%; pest or weed control at 250 ppm ([5]; Blumeria graminis, 250 ppm test suspension, wheat seedlings): 90%
